The values that follow are results of earlier work, collected in US11345706B2, “Crystalline forms of Acalabrutinib” (Apotex Inc., priority 2017, dated 2022).

As for `CC#CC(=O)N1CCC[C@H]1c1nc(-c2ccc(C(=O)Nc3ccccn3)cc2)c2c(N)nccn12` [Acalabrutinib, 4-{8-amino-3-[(2S)-1-(but-2-ynoyl)pyrrolidin-2-yl]imidazo[1,5-a]pyrazin-1-yl}-N-(pyridin-2-yl)benzamide], the “Biopharmaceutics Classification System (BCS) solubility classification” value was “poorly soluble drug”. For the same compound, the pH-dependent solubility result (pH values of greater than 4, reported in U.S. Pat. No. 9,796,721 B2) is recorded as “practically insoluble”.
